Laboratory results: publication PMC11984392, “EphA2-targeted alpha-particle theranostics for enhancing PDAC treatment” (Theranostics, 2025)
*1 amine or outer side, *2 acyl side, *3 side chain or, on linkers, in order; H or OH if unused. Where a SMILES comes first, the peptide text is derived from it. Bridges are numbered along the chain shown (N, C = ends). [ ]: non-standard residue; d: D form. The star is where a group is joined. DOTA = O=C(O)CN1CCN(CC(=O)O)CCN(CC(=O)*)CCN(CC(=O)O)CC1; TATA = O=C(CC[*:1])N1CN(C(=O)CC[*:2])CN(C(=O)CC[*:3])C1; NOTA = O=C(O)CN1CCN(CC(=O)O)CCN(CC(=O)*)CC1; Hyp = O=C(O)[C@@H]1C[C@@H](O)CN1; hArg = N=C(N)NCCCC[C@H](N)C(=O)O; PEG2 = NCCOCCOCCC(=O)O; Sar = CNCC(=O)O

Columns and labels:
mouse EphA2 = molecular target: T1, mouse EphA2 (Mus musculus, UniProt Q03145); assay: SPR binding affinity (Biacore T200, CM5 chip); settings: 25 °C, HBS-P + 0.1% DMSO, 1:1 kinetics model
T1 construct: purchased SinoBiological 50586-M08H
Protocol: (§1) All experiments were conducted using a Biacore T200 instrument (GE Healthcare Life Sciences) with a CM5 chip at 25 °C. His-tagged human EphA2 (R&D systems, catalog # 3035-A2, 56.9 kDa, 4.46 μM stock concentration) and mouse EphA2 (SinoBiological, cat.# 50586-M08H, 58 kDa, 8.6 μM stock concentration) were immobilized onto the CM5 chip. AJ201 (3328.8 Da, 10 mM stock concentration) and AJ210 (3072.5 Da, 10 mM stock concentration) were used as analyte to flow over the ligand immobilized surface. Flow Cell (FC) 1 was used as the reference for FC2, FC3 for FC4. Anti-His antibody (2 mg/ml stock concentration) was diluted (1:100 dilution, 0.02 mg/ml diluted concentration) in 10 mM sodium acetate buffer at pH 4.5 and immobilized on all FCs to a level of ~8000 to 11000 RU using the standard amine coupling chemistry. HBS-P (10 mM HEPES pH 7.4, 150 mM NaCl, 0.05% v/v surfactant P20) was used as the immobilization running buffer. Human EphA2 was diluted (1:5 dilution) in HBS-P captured onto FC2 to a level of ~750 RU. Mouse EphA2 was diluted (1:10 dilution) in HBS-P captured onto FC4 to a level of ~750 RU. HBS-P was used as the capture running buffer. The Rmax values assume 1:1 interaction mechanism. Overnight kinetics were performed for all analytes in the presence of HBS-P+0.1% DMSO. The flow rate of all analyte solutions was maintained at 50 μL/min. The contact and dissociation times used were 120s and 600s, respectively. Glycine solution (pH 1.5) was injected for 15 s for surface regeneration and fresh ligands were captured in the beginning of each injection cycle. Sensorgrams from the overnight kinetics was evaluated by using 1:1 kinetics model fitting.

human EphA2 = molecular target: T2, human EphA2 (Homo sapiens, UniProt P29317); assay: SPR binding affinity (Biacore T200, CM5 chip); settings: 25 °C, HBS-P + 0.1% DMSO, 1:1 kinetics model
T2 construct: purchased R&D systems 3035-A2
Protocol: as §1

[1] = design: species or system C57BL/6 mice; settings: mouse, in vivo
Protocol: Male C57BL/6 mice (5-6 weeks old) were used to establish syngeneic tumor by administering KPC cells subcutaneously in top right flank. For this study, 0.5 million cells were inoculated subcutaneously into the upper flank of each animal. Tumor growth was closely monitored, and once tumors became palpable, their volumes were measured using a vernier caliper. Animals were then randomized into groups to ensure balanced baseline tumor sizes, with median volumes of approximately 60 mm^3 (PBS group median: 60 mm^3; radiotherapeutic group median: 57 mm^3). Following randomization, two subsequent doses of 0.5 µCi of [^225Ac]AJ210 were administered intravenously with the interval of 24 h. Similarly, saline was administered in the control group. Measurements of tumor volume and body weight were conducted in alternative days until the end of study. Blood was collected retro-orbitally at 3-, 7- and 28-days post radiotherapy injection and hematological parameter were assessed using SCIL Vet ABC Plus instrument.
Tissue blocks and slides of liver, kidneys and lungs were prepared by JHU histology core and staining was also carried out by the Core. Briefly, tissue samples were fixed in formalin for 24 h and rinsed with PBS and stored in PBS. These tissue samples were dehydrated through graded ethanol series, cleared in xylene, and embedded in paraffin. Sections (4-5 µm thick) were cut using a microtome and mounted on glass slides. The slides were deparaffinized in xylene, rehydrated through graded ethanol to distilled water, and stained with hematoxylin for 5 min. After rinsing in running water, sections were differentiated in 1% acid alcohol, blued in ammonia water, and counterstained with eosin for 1-2 min. Slides were dehydrated, cleared in xylene, and mounted with a coverslip using a permanent mounting medium. Images were captured under a brightfield microscope to evaluate tissue structure and histopathological features.

Ex vivo biodistribution [2] = format: in vivo, mice; settings: mouse, in vivo, 50 uCi, total radioactivity
Protocol: (§2) Mice with 100-200 mm^3 tumor volume were used for ex vivo biodistribution studies. For radiotracer pharmacokinetics and dosimetry studies, mice with Panc1 tumor xenograft received ~80 µCi (2.96 MBq) [^68Ga]AJ201 and were sacrificed at pre-determined time points (5, 30, 60, 90 and 120 min). All other mice were injected with ~50 µCi (1.85 MBq; 0.2 to 0.5 nmol) Ga-68 labeled radiotracer and were sacrificed at 60 min. The selected tissues were collected, weighed, counted, and their %ID/g values calculated for biodistribution analysis. For pharmacokinetics and dosimetry studies, selected tissues included blood, muscle, tumor, thymus, heart, lung, liver, pancreas, stomach, small intestine, large intestine, spleen, adrenals, kidney, bladder, femur, brain and tumor xenografts. For other studies, selected tissues were blood, muscle, tumor, heart, lung, liver, pancreas, small intestine, spleen, kidney.

Ex vivo biodistribution [3] = assay: Ex vivo biodistribution; design: species or system NSG mice; settings: both sexes, NSG, mouse, in vivo, 50 uCi, total radioactivity
Protocol: Animal studies were performed under Johns Hopkins University Animal Care and Use Committee (ACUC)-approved protocol (Principal investigator: Sridhar Nimmagadda, Ph.D. and Protocol number M021M175). Male and Female NSG mice (5-6 weeks old) were purchased from JHU immunocompromised core and used to establish xenografts by administering cells subcutaneously (top right flank, unless otherwise noted) to form various tumor models within 3-4 weeks. Following cell numbers were used: Panc1, AsPC1, BxPC3 (1 M), Hs766T and SU8686 (2 M), CFPAC and Panc1005 (5 M). Imaging or biodistribution studies (n = 3-5) were conducted on mice with tumor volumes of 100-200 mm^3. The Panc1 orthotopic tumor model was established by surgically implanting a 3-5 mm^3 section of Panc1 tumor xenograft directly onto the pancreas. The implanted tumors were allowed to grow and were ready for imaging after 10 days of implantation.
as §2

T2 sequence (P29317 25-534 limits assumed): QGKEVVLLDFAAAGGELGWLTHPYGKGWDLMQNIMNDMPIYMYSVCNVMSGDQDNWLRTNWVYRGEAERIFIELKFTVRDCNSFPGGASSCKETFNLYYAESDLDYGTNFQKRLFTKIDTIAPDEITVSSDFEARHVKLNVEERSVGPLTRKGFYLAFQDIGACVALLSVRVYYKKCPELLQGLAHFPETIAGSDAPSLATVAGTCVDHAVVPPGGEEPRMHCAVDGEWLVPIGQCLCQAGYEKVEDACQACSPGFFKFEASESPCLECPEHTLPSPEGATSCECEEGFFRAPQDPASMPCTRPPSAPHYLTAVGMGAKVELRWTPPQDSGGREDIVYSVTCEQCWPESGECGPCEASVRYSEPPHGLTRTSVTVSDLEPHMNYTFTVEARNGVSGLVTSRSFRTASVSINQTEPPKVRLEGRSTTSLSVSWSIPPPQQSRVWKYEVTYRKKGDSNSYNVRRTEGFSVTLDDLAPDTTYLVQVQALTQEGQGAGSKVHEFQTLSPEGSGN
T1 sequence (Q03145 26-535 limits assumed): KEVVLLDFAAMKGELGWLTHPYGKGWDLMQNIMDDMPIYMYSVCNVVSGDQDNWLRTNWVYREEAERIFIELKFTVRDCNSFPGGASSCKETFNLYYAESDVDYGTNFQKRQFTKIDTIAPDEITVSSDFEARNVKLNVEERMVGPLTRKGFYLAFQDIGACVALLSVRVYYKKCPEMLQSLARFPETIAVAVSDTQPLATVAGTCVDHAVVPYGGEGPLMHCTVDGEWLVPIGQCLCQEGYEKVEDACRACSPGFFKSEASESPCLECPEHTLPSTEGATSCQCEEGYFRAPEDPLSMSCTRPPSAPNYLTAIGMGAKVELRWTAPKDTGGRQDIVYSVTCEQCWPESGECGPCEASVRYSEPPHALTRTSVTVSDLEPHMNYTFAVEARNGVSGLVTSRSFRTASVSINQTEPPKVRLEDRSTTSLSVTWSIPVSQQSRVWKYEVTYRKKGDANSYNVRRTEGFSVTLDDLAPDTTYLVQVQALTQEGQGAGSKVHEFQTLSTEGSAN

CC(C)C[C@@H]1NC(=O)[C@@H]2CSCCC(=O)N3CN(CN(C3)C(=O)CCSC[C@H](NC(=O)[C@H](CC(=O)O)NC(=O)[C@H](CCCCNC(=N)N)NC(=O)[C@H](C)NC(=O)CNC(=O)CN(C)C(=O)CN(C)C(=O)CN(C)C(=O)[C@H](CCCNC(=N)N)NC(=O)CNC(=O)CCOCCOCCNC(=O)CN3CCN(CC(=O)O)CCN(CC(=O)O)CC3)C(=O)N3C[C@H](O)C[C@H]3C(=O)N[C@@H](CC(C)C)C(=O)N[C@@H](C(C)C)C(=O)N[C@@H](CC(N)=O)C(=O)N3CCC[C@H]3C(=O)N[C@@H](CC(C)C)C(=O)N2)C(=O)CCSC[C@@H](C(N)=O)NC(=O)[C@H](CCCCNC(=N)N)NC(=O)[C@H](Cc2c[nH]c3ccccc23)NC(=O)[C@@H](CC(=O)O)NC(=O)[C@@H]2CCCN2C(=O)[C@H](Cc2c[nH]cn2)NC1=O [AJ201] ({NOTA-PEG2}-GR[Sar][Sar][Sar]GA[hArg]DC[Hyp]LVNPLCLHP[dD]W[hArg]C-NH2; linker 10-17-24 via TATA)
koff (mouse EphA2): 0.00302 s⁻¹ | kon (mouse EphA2): 5.03e+06 M⁻¹ s⁻¹ | koff (human EphA2): 0.00133 s⁻¹ | kon (human EphA2): 7.6e+06 M⁻¹ s⁻¹

CC(C)C[C@@H]1NC(=O)[C@@H]2CSCCC(=O)N3CN(CN(C3)C(=O)CCSC[C@H](NC(=O)[C@H](CC(=O)O)NC(=O)[C@H](CCCCNC(=N)N)NC(=O)[C@H](C)NC(=O)CNC(=O)CNC(=O)CNC(=O)CNC(=O)CNC(=O)CN3CCN(CC(=O)O)CCN(CC(=O)O)CCN(CC(=O)O)CC3)C(=O)N3C[C@H](O)C[C@H]3C(=O)N[C@@H](CC(C)C)C(=O)N[C@@H](C(C)C)C(=O)N[C@@H](CC(N)=O)C(=O)N3CCC[C@H]3C(=O)N[C@@H](CC(C)C)C(=O)N2)C(=O)CCSC[C@@H](C(N)=O)NC(=O)[C@H](CCCCNC(=N)N)NC(=O)[C@H](Cc2c[nH]c3ccccc23)NC(=O)[C@@H](CC(=O)O)NC(=O)[C@@H]2CCCN2C(=O)[C@H](Cc2c[nH]cn2)NC1=O [[^225Ac]AJ210, metal not drawn] ({DOTA}-GGGGGA[hArg]DC[Hyp]LVNPLCLHP[dD]W[hArg]C-NH2; linker 9-16-23 via TATA)
H&E histology of kidney [1]: no significant pathological changes | H&E histology of liver [1]: no significant pathological changes | H&E histology of lungs [1]: no significant pathological changes | H&E staining of lung, liver and kidney sections [1]: no visible histological abnormalities

CC(C)C[C@@H]1NC(=O)[C@@H]2CSCCC(=O)N3CN(CN(C3)C(=O)CCSC[C@H](NC(=O)[C@H](CC(=O)O)NC(=O)[C@H](CCCCNC(=N)N)NC(=O)[C@H](C)NC(=O)CNC(=O)CNC(=O)CNC(=O)CNC(=O)CNC(=O)CN3CCN(CC(=O)O)CCN(CC(=O)O)CCN(CC(=O)O)CC3)C(=O)N3C[C@H](O)C[C@H]3C(=O)N[C@@H](CC(C)C)C(=O)N[C@@H](C(C)C)C(=O)N[C@@H](CC(N)=O)C(=O)N3CCC[C@H]3C(=O)N[C@@H](CC(C)C)C(=O)N2)C(=O)CCSC[C@@H](C(N)=O)NC(=O)[C@H](CCCCNC(=N)N)NC(=O)[C@H](Cc2c[nH]c3ccccc23)NC(=O)[C@@H](CC(=O)O)NC(=O)[C@@H]2CCCN2C(=O)[C@H](Cc2c[nH]cn2)NC1=O [[^68Ga]AJ210, metal not drawn] ({DOTA}-GGGGGA[hArg]DC[Hyp]LVNPLCLHP[dD]W[hArg]C-NH2; linker 9-16-23 via TATA)
tissue uptake at 1 h (Ex vivo biodistribution [2]; Blood uptake): 0.56 ± 0.14 %ID/g | tissue uptake at 1 h (Ex vivo biodistribution [2]; Femur uptake): 0.29 ± 0.07 %ID/g | tissue uptake at 1 h (Ex vivo biodistribution [2]; Heart uptake): 0.24 ± 0.05 %ID/g | tissue uptake at 1 h (Ex vivo biodistribution [2]; Kidney uptake): 59.9 ± 16.4 %ID/g | tissue uptake at 1 h (Ex vivo biodistribution [2]; Liver uptake): 0.26 ± 0.05 %ID/g | tissue uptake at 1 h (Ex vivo biodistribution [2]; Lung uptake): 0.57 ± 0.13 %ID/g | tissue uptake at 1 h (Ex vivo biodistribution [2]; Muscle uptake): 0.19 ± 0.04 %ID/g | tissue uptake at 1 h (Ex vivo biodistribution [2]; Pancreas uptake): 0.24 ± 0.06 %ID/g | tissue uptake at 1 h (Ex vivo biodistribution [2]; Small intestine uptake): 0.64 ± 0.47 %ID/g | tissue uptake at 1 h (Ex vivo biodistribution [2]; Spleen uptake): 0.35 ± 0.07 %ID/g | tissue uptake at 1 h (Ex vivo biodistribution [2]; Stomach uptake): 0.17 ± 0.07 %ID/g | tissue uptake at 1 h (Ex vivo biodistribution [2]; Tumor uptake): 1.06 ± 0.25 %ID/g | tissue to tissue ratio at 1 h (Ex vivo biodistribution [2]; Tumor/Muscle ratio): 5.61 ± 0.69 | tissue to tissue ratio at 1 h (Ex vivo biodistribution [2]; Tumor/Pancreas ratio): 4.65 ± 1.46 | tissue to tissue ratio at 1 h (Ex vivo biodistribution [2]; Tumor/blood ratio): 1.94 ± 0.44 | tissue uptake at 1 h (Ex vivo biodistribution [3]; Blood uptake): 0.96 ± 0.33 %ID/g | tissue uptake at 1 h (Ex vivo biodistribution [3]; Femur uptake): 0.38 ± 0.08 %ID/g | tissue uptake at 1 h (Ex vivo biodistribution [3]; Heart uptake): 0.84 ± 0.14 %ID/g | tissue uptake at 1 h (Ex vivo biodistribution [3]; Kidney uptake): 24.4 ± 9.98 %ID/g | tissue uptake at 1 h (Ex vivo biodistribution [3]; Liver uptake): 0.34 ± 0.06 %ID/g | tissue uptake at 1 h (Ex vivo biodistribution [3]; Lung uptake): 0.39 ± 0.08 %ID/g | tissue uptake at 1 h (Ex vivo biodistribution [3]; Muscle uptake): 0.4 ± 0.16 %ID/g | tissue uptake at 1 h (Ex vivo biodistribution [3]; Pancreas uptake): 0.3 ± 0.08 %ID/g | tissue uptake at 1 h (Ex vivo biodistribution [3]; Small intestine uptake): 0.62 ± 0.22 %ID/g | tissue uptake at 1 h (Ex vivo biodistribution [3]; Spleen uptake): 0.74 ± 0.22 %ID/g | tissue uptake at 1 h (Ex vivo biodistribution [3]; Stomach uptake): 0.09 ± 0.03 %ID/g | tissue uptake at 1 h (Ex vivo biodistribution [3]; Tumor uptake): 3.72 ± 0.66 %ID/g | tissue to tissue ratio at 1 h (Ex vivo biodistribution [3]; Tumor/Muscle ratio): 10.3 ± 4.01 | tissue to tissue ratio at 1 h (Ex vivo biodistribution [3]; Tumor/Pancreas ratio): 13.1 ± 4.11 | tissue to tissue ratio at 1 h (Ex vivo biodistribution [3]; Tumor/blood ratio): 4.09 ± 0.97
